Laboratory results reported in patent US4150049A, “Esters of aromatic sulfonic acids” (The Government of the United States, priority 1977, dated 1979).
pKd, pKi: −log10 of the molar value.

Key:
Plasmin (human) = target: T1, Plasmin (human) (Homo sapiens, UniProt P00747); assay: Dixon plot competitive inhibition of esterase action of human plasmin; format: biochemical; details: Dixon plots, pH 6.0; Ki (M) x 10^5; read-out: Inhibition constant Ki (M) x 10^5, Plasmin (human)
T1 construct: from tissue; host or cells: Cohn fraction III (human plasma)
T1 sequence (P00747 581-810 limits assumed): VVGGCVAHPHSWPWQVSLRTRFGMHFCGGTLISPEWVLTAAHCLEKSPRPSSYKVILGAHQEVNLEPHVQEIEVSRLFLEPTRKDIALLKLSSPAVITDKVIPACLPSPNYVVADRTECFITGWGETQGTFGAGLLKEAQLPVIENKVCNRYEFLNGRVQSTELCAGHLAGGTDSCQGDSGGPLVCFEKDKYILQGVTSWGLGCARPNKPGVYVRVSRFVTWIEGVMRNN
T1 sequence (P00747 97-580 limits assumed): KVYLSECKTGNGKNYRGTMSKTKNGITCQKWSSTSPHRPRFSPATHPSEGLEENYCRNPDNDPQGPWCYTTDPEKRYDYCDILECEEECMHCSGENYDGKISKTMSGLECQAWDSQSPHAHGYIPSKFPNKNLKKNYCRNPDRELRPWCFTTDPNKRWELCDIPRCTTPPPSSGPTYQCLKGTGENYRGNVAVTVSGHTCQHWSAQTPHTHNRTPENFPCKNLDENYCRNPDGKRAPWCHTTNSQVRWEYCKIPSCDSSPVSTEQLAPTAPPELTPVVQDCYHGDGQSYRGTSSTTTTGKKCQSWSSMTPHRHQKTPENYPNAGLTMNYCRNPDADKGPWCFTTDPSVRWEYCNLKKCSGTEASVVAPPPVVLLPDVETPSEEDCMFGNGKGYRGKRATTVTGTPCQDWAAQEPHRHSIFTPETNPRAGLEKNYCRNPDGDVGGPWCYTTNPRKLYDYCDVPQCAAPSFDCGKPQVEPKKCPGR
Procedure: (§1) In accordance with the present invention, nitrophenyl m- and p-amidinophenylmethanesulfonate were prepared, and these compounds were examined for their properties related to inhibition and inactivation of specific enzymes. With regard to the enzymes employed, bovine β-trypsin and thrombin were chromatographically purified by known procedures. Human plasminogen was purified from Cohn fraction III and activated with streptokinase. Human plasma kallikrein was purified about 1000-fold from activated Cohn fraction IV, by affinity chromatography. Human thrombin was prepared by the method of Miller and Copeland. Bovine chymotrypsin three times crystallized was also employed, along with streptokinase.
(§2) Enzyme concentrations were determined by titration with nitrophenyl p-guanidinobenzoate in the case of trypsin, plasmin, and thrombin, whereas chymotrypsin molarity was based on weight. Kallikrein concentration is expressed in enzyme units as measured in a pH-state by esterase action on 0.02 M tos-Arg-OMe in 0.06 M KCl at pH 7.85; one unit corresponds to the hydrolysis of 1 μmole of ester per minute under these conditions.
(§3) Optical density change at 340 nm was measured with double beam operation as described above. […]

β-Trypsin = target: T2, β-Trypsin (Bos taurus, UniProt P00760); assay: Dixon plot competitive inhibition of hydrolysis of benzyloxy-lysine-nitrophenyl ester by β-trypsin; format: biochemical, bovine; details: Dixon plots, pH 6.0; Ki (M) x 10^5; read-out: Inhibition constant Ki (M) x 10^5, β-Trypsin
T2 construct: bovine β-trypsin; made in house
T2 sequence (P00760 24-246): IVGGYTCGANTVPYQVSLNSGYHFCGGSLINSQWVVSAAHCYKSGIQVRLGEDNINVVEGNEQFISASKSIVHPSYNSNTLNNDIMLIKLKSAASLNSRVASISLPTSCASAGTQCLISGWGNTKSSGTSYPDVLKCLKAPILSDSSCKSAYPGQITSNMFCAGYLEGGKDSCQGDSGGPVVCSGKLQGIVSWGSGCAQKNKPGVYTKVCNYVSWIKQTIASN
Procedure: as §1, §2, §3

α-Chymotrypsin = target: T3, α-Chymotrypsin (Bos taurus, UniProt P00766); assay: Dixon plot competitive inhibition of hydrolysis of benzyloxy-lysine-nitrophenyl ester by α-chymotrypsin; format: biochemical, bovine; details: Dixon plots, pH 6.0; Ki (M) x 10^5; read-out: Inhibition constant Ki (M) x 10^5, α-Chymotrypsin
T3 construct: α-Chymotrypsin
Procedure: as §1, §2, §3

Thrombin (bovine) = target: T4, Thrombin (bovine) (Bos taurus, UniProt P00735); assay: Dixon plot competitive inhibition of hydrolysis of benzyloxy-lysine-nitrophenyl ester by bovine thrombin; format: biochemical
T4 construct: made in house
Procedure: as §1, §2, §3

[1] = target: T5, Plasma kallikrein (human) (Homo sapiens, UniProt P03952); assay: Dixon plot competitive inhibition of esterase action of human plasma kallikrein; format: biochemical; details: Dixon plots, pH 6.0; Ki (M) x 10^5; read-out: Inhibition constant Ki (M) x 10^5, Plasma kallikrein (human)
T5 construct: from tissue
T5 sequence (P03952 391-638 limits assumed): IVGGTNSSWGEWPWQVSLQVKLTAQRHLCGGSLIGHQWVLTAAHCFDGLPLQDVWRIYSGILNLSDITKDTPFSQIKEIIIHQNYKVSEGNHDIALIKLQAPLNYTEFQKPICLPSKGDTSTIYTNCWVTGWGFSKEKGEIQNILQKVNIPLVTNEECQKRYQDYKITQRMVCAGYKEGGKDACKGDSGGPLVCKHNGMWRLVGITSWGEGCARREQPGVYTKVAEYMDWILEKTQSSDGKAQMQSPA
T5 sequence (P03952 20-390 limits assumed): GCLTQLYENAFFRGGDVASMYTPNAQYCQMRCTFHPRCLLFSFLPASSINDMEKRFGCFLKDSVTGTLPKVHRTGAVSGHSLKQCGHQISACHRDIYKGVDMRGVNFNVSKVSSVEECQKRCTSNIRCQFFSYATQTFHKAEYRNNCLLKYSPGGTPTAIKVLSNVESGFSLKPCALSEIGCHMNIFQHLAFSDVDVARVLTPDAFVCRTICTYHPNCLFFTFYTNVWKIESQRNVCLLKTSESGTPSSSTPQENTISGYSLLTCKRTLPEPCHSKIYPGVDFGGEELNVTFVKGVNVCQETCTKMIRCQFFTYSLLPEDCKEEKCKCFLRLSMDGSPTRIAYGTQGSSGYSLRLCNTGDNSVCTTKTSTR
Procedure: as §1, §2, §3

Thrombin (human) = target: T6, Thrombin (human) (Homo sapiens, UniProt P00734); assay: Dixon plot competitive inhibition of hydrolysis of benzyloxy-lysine-nitrophenyl ester by human thrombin; format: biochemical; details: Dixon plots, pH 6.0; Ki (M) x 10^5; read-out: Inhibition constant Ki (M) x 10^5, Thrombin (human)
T6 construct: made in house
Procedure: as §1, §2, §3

thrombin = thrombin (Bos taurus, UniProt P00735); assay: presteady state kinetics of nitrophenol production by thrombin; format: biochemical, bovine
Procedure: as §1
The action of thrombin on nitrophenyl p-amidinophenylmethanesulfonate was also studied in 0.05 M sodium veronal buffer, pH 7.4 (with 0.02 M Ca^2+ + at a series of reagent concentrations to determine the possible formation of an intermediate complex as a step in the inactivation process. The apparatus was the same as above and presteady state nitrophenol production was analyzed for the calculation of k2 and KS. Concentrations of the p-isomer were 0.5, 1.0, 2.0, 2.5, 3.75, and 5.0×10^-4 M. One of the progress curves is shown in FIG. 1, with this graph representing the action of thrombin (3×10^-6 M) on the p-isomer, pH 8.3, 25° C., with stoichiometric nitrophenol release accompanying inactivation. Although the full chromogeneity of nitrophenol is not reached at this pH, the final value in each case was equal to that obtained in control titrations with NPGB.

Work on `N=C(N)c1cccc(CS(=O)(=O)Oc2ccc([N+](=O)[O-])cc2)c1` [m-isomer] yielded a Ki (Plasmin (human)) of 4.2e-05 M, a Ki (β-Trypsin) of 9e-06 M and a Ki (α-Chymotrypsin) of 1.3e-05 M. For the same molecule, the pKi (Thrombin (bovine)) was 3.38, the Ki [1] was 1.9e-05 M and the Ki (Thrombin (human)) was 5.3e-05 M.
In the case of `N=C(N)c1ccc(CS(=O)(=O)Oc2ccc([N+](=O)[O-])cc2)cc1` [p-isomer], the pKd (thrombin) was 3.92, the pKi (thrombin) was 3.92 and the kinact (thrombin; presteady state kinetics, pH 7.4, read-out: rate constant for inactive enzyme formation, k2 (converted)) was 0.0193 s⁻¹. The Ki (Plasmin (human)) was 0.0005 M, the Ki (β-Trypsin) was 7e-05 M and the Ki (α-Chymotrypsin) was 3.6e-05 M. The Ki [1] was 4.7e-05 M.
